Results published in patent publication US11566007B2, “Ras inhibitors” (Revolution Medicines, Inc., priority 2019, dated 2023).
Values joined by “and” are separate entries in the source; they are usually repeats but may differ in a detail not shown here. Equal entries are not always repeated.

Columns and labels:
NCI-H358 (K-Ras G12C) = assay: CellTiter-Glo cell viability assay, NCI-H358; type: cell-based, human; conditions: Homo sapiens, NCI-H358, 120 h, NCI-H358, 5-day treatment; class symbols; read-out: Additional H358 Cell Viability assay data (K-Ras G12C, IC50)
In short: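 Cells seeded, compound added directly, 5-day exposure. Plates to RT ~30 min, CellTiter-Glo luminescence read. Normalized to DMSO avg (x100); 4-parameter logistic fit.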

KRAS G12S = KRAS G12S (Homo sapiens (Human), UniProt P01116+P62937, G12S); assay: Ras-Raf (BRAF RBD) disruption / FRET / MOA assay, KRAS G12S; type: biochemical; conditions: Ras-Raf disruption/FRET/MOA assay; class symbols; read-out: KRAS G12S FRET data IC50
Sequence of KRAS G12S (P01116-2 other isoform, or with tags, fused parts or gaps G12S): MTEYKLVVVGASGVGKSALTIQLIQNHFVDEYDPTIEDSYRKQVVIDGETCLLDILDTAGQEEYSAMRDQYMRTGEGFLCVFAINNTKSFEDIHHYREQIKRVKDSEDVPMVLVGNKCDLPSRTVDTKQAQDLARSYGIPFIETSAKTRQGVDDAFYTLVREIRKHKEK
Sequence of KRAS G12S (P62937 whole entry): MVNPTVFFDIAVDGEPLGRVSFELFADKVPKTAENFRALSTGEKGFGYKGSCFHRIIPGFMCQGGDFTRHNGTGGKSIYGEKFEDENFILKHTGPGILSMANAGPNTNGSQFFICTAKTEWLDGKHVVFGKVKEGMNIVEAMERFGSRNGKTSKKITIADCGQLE
In short: (§1)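 TR-FRET read-out: a drop in ratio relative to DMSO wells marks disruption of the Ras:RAF complex, reported as IC50. Compounds (3-fold series, 10 points, top 30 μM final) incubated 3 h at 25° C before Eu-anti-His 10 nM and APC-anti-GST 50 nM, 1.5 h more.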

K-Ras G13C = K-Ras G13C (Homo sapiens (Human), UniProt P01116+P62937, G13C); assay: Ras-Raf (BRAF RBD) disruption / FRET / MOA assay, KRAS G13C; type: biochemical; conditions: KRAS G13C; Ras-Raf disruption/FRET/MOA assay; read-out: IC50* KRAS G13C FRET data
Sequence of K-Ras G13C (P01116-2 other isoform, or with tags, fused parts or gaps G13C): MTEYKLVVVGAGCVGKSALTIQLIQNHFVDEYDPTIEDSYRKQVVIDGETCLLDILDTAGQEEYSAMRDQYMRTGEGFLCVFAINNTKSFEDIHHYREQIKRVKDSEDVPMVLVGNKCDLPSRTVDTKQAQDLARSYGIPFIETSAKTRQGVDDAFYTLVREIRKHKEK
Sequence of K-Ras G13C (P62937 whole entry): as the sequence (P62937 whole entry) above
In short: as §1

NRAS G12C = NRAS G12C (Homo sapiens (Human), UniProt P01111+P62937, G12C); assay: Ras-Raf (BRAF RBD) disruption / FRET / MOA assay, NRAS G12C; type: biochemical; conditions: read-out: IC50* NRAS G12C FRET data
Sequence of NRAS G12C (P01111 whole entry G12C): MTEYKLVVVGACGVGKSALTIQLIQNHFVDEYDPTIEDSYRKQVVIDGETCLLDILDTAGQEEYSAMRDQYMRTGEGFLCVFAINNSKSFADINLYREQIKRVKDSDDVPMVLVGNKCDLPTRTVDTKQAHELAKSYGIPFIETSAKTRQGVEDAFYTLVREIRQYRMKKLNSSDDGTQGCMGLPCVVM
Sequence of NRAS G12C (P62937 whole entry): as the sequence (P62937 whole entry) above
In short: as §1

KRAS G12D = KRAS G12D (Homo sapiens (Human), UniProt P01116+P62937, G12D); assay: Ras-Raf (BRAF RBD) disruption / FRET / MOA assay, KRAS G12D; type: biochemical; conditions: Ras-Raf disruption/FRET/MOA assay; class symbols; read-out: KRAS G12D FRET data IC50
Sequence of KRAS G12D (P01116-2 other isoform, or with tags, fused parts or gaps G12D): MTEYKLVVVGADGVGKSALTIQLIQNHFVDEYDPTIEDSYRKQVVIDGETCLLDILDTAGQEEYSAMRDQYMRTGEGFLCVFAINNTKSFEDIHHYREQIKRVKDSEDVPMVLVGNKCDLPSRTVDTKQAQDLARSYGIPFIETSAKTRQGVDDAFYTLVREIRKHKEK
Sequence of KRAS G12D (P62937 whole entry): as the sequence (P62937 whole entry) above
In short: as §1

KRAS Q61H = KRAS Q61H (Homo sapiens (Human), UniProt P01116+P62937, Q61H); assay: Ras-Raf (BRAF RBD) disruption / FRET / MOA assay, KRAS Q61H; type: biochemical; conditions: Ras-Raf disruption/FRET/MOA assay; class symbols; read-out: KRAS Q61H FRET data IC50
Sequence of KRAS Q61H (P01116-2 other isoform, or with tags, fused parts or gaps Q61H): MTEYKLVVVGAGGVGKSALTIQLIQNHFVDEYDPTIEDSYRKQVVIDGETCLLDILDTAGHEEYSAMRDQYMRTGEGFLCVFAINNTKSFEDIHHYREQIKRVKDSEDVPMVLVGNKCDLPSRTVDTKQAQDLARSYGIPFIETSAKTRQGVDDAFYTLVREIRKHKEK
Sequence of KRAS Q61H (P62937 whole entry): as the sequence (P62937 whole entry) above
In short: (§2)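 Compounds were tested as a 10-point 3-fold dilution series from 30 μM final for their ability to drive ternary complex formation between nucleotide-loaded Ras and cyclophilin A, displacing the BRAF RBD. After 3 h at 25° C., anti-His Eu-W1024 (10 nM) and anti-GST allophycocyanin (50 nM) were added for 1.5 h. A TR-FRET ratio decrease versus DMSO gave IC50.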

KRAS WT = KRAS WT (Homo sapiens (Human), UniProt P01116+P62937); assay: Ras-Raf (BRAF RBD) disruption / FRET / MOA assay, KRAS WT; type: biochemical; conditions: read-out: IC50* KRAS WT FRET data
Sequence of KRAS WT (P01116-2 other isoform, or with tags, fused parts or gaps): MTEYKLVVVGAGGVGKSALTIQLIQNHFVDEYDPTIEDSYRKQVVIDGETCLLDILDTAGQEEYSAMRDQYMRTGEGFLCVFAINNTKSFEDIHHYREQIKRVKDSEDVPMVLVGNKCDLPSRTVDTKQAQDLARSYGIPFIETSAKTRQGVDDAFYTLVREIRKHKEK
Sequence of KRAS WT (P62937 whole entry): as the sequence (P62937 whole entry) above
In short: as §1

K-Ras G12C = K-Ras G12C (Homo sapiens (Human), UniProt P01116+P62937, G12C); assay: Ras-Raf (BRAF RBD) disruption / FRET / MOA assay, KRAS G12C; type: biochemical; conditions: KRAS G12C; Ras-Raf disruption/FRET/MOA assay; read-out: IC50* KRAS G12C FRET data
Sequence of K-Ras G12C (P01116-2 other isoform, or with tags, fused parts or gaps G12C): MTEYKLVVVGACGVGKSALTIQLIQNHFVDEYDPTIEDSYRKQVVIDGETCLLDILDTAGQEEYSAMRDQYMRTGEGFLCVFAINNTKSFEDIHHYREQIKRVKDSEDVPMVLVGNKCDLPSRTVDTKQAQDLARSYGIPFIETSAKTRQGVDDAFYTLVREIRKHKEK
Sequence of K-Ras G12C (P62937 whole entry): as the sequence (P62937 whole entry) above
In short: as §1

NRAS WT = NRAS WT (Homo sapiens (Human), UniProt P01111+P62937); assay: Ras-Raf (BRAF RBD) disruption / FRET / MOA assay, NRAS WT; type: biochemical; conditions: read-out: IC50* NRAS WT FRET data
Sequence of NRAS WT (P01111 whole entry): as the sequence (P01111 whole entry G12C) above, with C12G counted along it
Sequence of NRAS WT (P62937 whole entry): as the sequence (P62937 whole entry) above
In short: as §2

KRAS G13D = KRAS G13D (Homo sapiens (Human), UniProt P01116+P62937, G13D); assay: Ras-Raf (BRAF RBD) disruption / FRET / MOA assay, KRAS G13D; type: biochemical; conditions: read-out: IC50* KRAS G13D FRET data
Sequence of KRAS G13D (P01116-2 other isoform, or with tags, fused parts or gaps G13D): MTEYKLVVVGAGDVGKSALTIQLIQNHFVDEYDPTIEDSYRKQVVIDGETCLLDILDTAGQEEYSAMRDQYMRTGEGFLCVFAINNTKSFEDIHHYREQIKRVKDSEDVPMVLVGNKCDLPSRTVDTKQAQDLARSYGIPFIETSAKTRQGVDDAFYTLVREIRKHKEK
Sequence of KRAS G13D (P62937 whole entry): as the sequence (P62937 whole entry) above
In short: as §1

KRAS G12V = KRAS G12V (Homo sapiens (Human), UniProt P01116+P62937, G12V); assay: Ras-Raf (BRAF RBD) disruption / FRET / MOA assay, KRAS G12V; type: biochemical; conditions: read-out: IC50* KRAS G12V FRET data
Sequence of KRAS G12V (P01116-2 other isoform, or with tags, fused parts or gaps G12V): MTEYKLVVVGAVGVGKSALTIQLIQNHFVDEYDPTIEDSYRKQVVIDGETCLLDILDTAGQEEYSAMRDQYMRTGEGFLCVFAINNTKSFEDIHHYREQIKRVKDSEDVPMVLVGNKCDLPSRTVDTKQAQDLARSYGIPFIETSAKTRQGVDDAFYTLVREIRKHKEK
Sequence of KRAS G12V (P62937 whole entry): as the sequence (P62937 whole entry) above
In short: as §1

NRAS Q61R = NRAS Q61R (Homo sapiens (Human), UniProt P01111+P62937, Q61R); assay: Ras-Raf (BRAF RBD) disruption / FRET / MOA assay, NRAS Q61R; type: biochemical; conditions: NRAS Q61R; Ras-Raf disruption/FRET/MOA assay; read-out: IC50* NRAS Q61R FRET data
Sequence of NRAS Q61R (P01111 whole entry Q61R): as the sequence (P01111 whole entry G12C) above, with C12G, Q61R counted along it
Sequence of NRAS Q61R (P62937 whole entry): as the sequence (P62937 whole entry) above
In short: as §2

Row | Compound | IC50 (NCI-H358 (K-Ras G12C)) [nM] | IC50 (KRAS G12S) [nM] | IC50 (K-Ras G13C) [nM] | IC50 (NRAS G12C) | IC50 (KRAS G12D) [nM] | IC50 (KRAS Q61H) [nM] | IC50 (KRAS WT) [nM] | IC50 (K-Ras G12C) | IC50 (NRAS WT) [nM] | IC50 (KRAS G13D) [nM] | IC50 (KRAS G12V) [nM] | IC50 (NRAS Q61R) [nM]
1 | C=CC(=O)N1CC[C@H](C(=O)N(C)[C@H](C(=O)N[C@H]2Cc3cccc(c3)-c3ccc4c(c3)c(c(-c3cnccc3[C@H](C)OC)n4CC)CC(C)(C)COC(=O)[C@@H]3CCCN(N3)C2=O)C(C)C)C1 (single isomer, unassigned) [Example A115] | 10 to 100 | 1000 to 10000 | 1000 to 10000 | 10 to 100 nM and 100 to 1000 nM | > 10000 | 100 to 1000 | 1000 to 10000 | 10 to 100 nM and 100 to 1000 nM | 1000 to 10000 | > 10000 | 1000 to 10000 | 1000 to 10000
2 | C=CC(=O)N1CC[C@H](C(=O)N(C)[C@H](C(=O)N[C@H]2Cc3cc(O)cc(c3)-c3ccc4c(c3)c(c(-c3cc(N5CC(OC)C5)ccn3)n4CC)CC(C)(C)COC(=O)[C@@H]3CCCN(N3)C2=O)C(C)C)C1 [Example A104] | < 10 | 1000 to 10000 | 1000 to 10000 | 10 to 100 nM | > 10000 | 100 to 1000 | 1000 to 10000 | 10 to 100 nM | 1000 to 10000 | 1000 to 10000 | 1000 to 10000 | 1000 to 10000
3 | C=CC(=O)N1CC[C@H](C(=O)N(C)[C@H](C(=O)N[C@H]2Cc3cc(O)cc(c3)-c3ccc4c(c3)c(c(-c3cc(C#N)cnc3COC)n4CC)CC(C)(C)COC(=O)[C@@H]3CCCN(N3)C2=O)C(C)C)C1 [Example A105] | 10 to 100 | 100 to 1000 | 100 to 1000 | 10 to 100 nM | 1000 to 10000 | 10 to 100 | 100 to 1000 | 10 to 100 nM | 100 to 1000 | 100 to 1000 | 100 to 1000 | 100 to 1000
4 | C=CC(=O)N1CC[C@H](C(=O)N(C)[C@H](C(=O)N[C@H]2Cc3cc(O)cc(c3)-c3ccc4c(c3)c(c(-c3cn(C)cn3)n4CC)CC(C)(C)COC(=O)[C@@H]3CCCN(N3)C2=O)C(C)C)C1 [Example A113] | 100 to 1000 | 1000 to 10000 | > 10000 | 100 to 1000 nM | > 10000 | 1000 to 10000 | > 10000 | 100 to 1000 nM | > 10000 | > 10000 | 1000 to 10000 | > 10000
5 | C=CS(=O)(=O)N1CC[C@H](C(=O)N(C)[C@H](C(=O)N[C@H]2Cc3cc(O)cc(c3)-c3ccc4c(c3)c(c(-c3cncnc3)n4CC)CC(C)(C)COC(=O)[C@@H]3CCCN(N3)C2=O)C(C)C)C1 [Example A172] | 10 to 100 | 1000 to 10000 | 10 to 100 | 10 to 100 nM | > 10000 | 100 to 1000 | 1000 to 10000 | 10 to 100 nM | 1000 to 10000 | > 10000 | 1000 to 10000 | > 10000
6 | CCn1c(-c2cccnc2[C@H](C)OC)c2c3cc(ccc31)-c1cccc(c1)C[C@H](NC(=O)[C@H](C(C)C)N1CC[C@@]3(CCN(C(=O)C#C[C@@H]4COCCN4C4COC4)C3)C1=O)C(=O)N1CCC[C@H](N1)C(=O)OCC(C)(C)C2 [Example A566] | < 10 | 1000 to 10000 | 100 to 1000 | 10 to 100 nM | 1000 to 10000 | 100 to 1000 | 1000 to 10000 | 10 to 100 nM | 1000 to 10000 | 1000 to 10000 | 1000 to 10000 | 1000 to 10000
7 | C=CC(=O)N1CCC2(C1)CN(C(=O)N(C)[C@H](C(=O)N[C@H]1Cc3nc(cs3)-c3ccc4c(c3)c(c(-c3cccnc3[C@H](C)OC)n4CC(F)(F)F)CC(C)(C)COC(=O)[C@@H]3CCCN(N3)C1=O)C(C)C)C2 [Example A603] | 10 to 100 | 100 to 1000 | 10 to 100 | 10 to 100 nM | 100 to 1000 | 10 to 100 | 10 to 100 | 10 to 100 nM | 10 to 100 | 100 to 1000 | 100 to 1000 | 10 to 100
8 | CCn1c(-c2cccnc2[C@H](C)OC)c2c3cc(ccc31)-c1cccc(c1)C[C@H](NC(=O)[C@H](C(C)C)N(C)C(=O)N1CCC13CN(C(=O)C#CC(C)(C)N(C)C)C3)C(=O)N1CCC[C@H](N1)C(=O)OCC(C)(C)C2 [Example A672] | 10 to 100 | 100 to 1000 | 100 to 1000 | 10 to 100 nM | 1000 to 10000 | 10 to 100 | 100 to 1000 | 10 to 100 nM | 100 to 1000 | 100 to 1000 | 100 to 1000 | 100 to 1000
9 | C=CC(=O)N(C)[C@H]1CC1N(C)C(=O)N(C)[C@H](C(=O)N[C@H]1Cc2nc(cs2)-c2ccc3c(c2)c(c(-c2cccnc2[C@H](C)OC)n3CC)CC(C)(C)COC(=O)[C@@H]2CCCN(N2)C1=O)C(C)C (stereo partly drawn) [Example A738] | < 10 | 1000 to 10000 | 100 to 1000 | 100 to 1000 nM | 1000 to 10000 | 100 to 1000 | 100 to 1000 | 100 to 1000 nM | 100 to 1000 | 1000 to 10000 | 1000 to 10000 | 100 to 1000
